The structures appear in SMILES notation.

The source of these data is ChEMBL document CHEMBL5625223 (Eur J Med Chem, 2023).

The target in test [1] is T1, 5-hydroxytryptamine receptor 2C (Homo sapiens, UniProt P28335).
T1 sequence (P28335 whole entry): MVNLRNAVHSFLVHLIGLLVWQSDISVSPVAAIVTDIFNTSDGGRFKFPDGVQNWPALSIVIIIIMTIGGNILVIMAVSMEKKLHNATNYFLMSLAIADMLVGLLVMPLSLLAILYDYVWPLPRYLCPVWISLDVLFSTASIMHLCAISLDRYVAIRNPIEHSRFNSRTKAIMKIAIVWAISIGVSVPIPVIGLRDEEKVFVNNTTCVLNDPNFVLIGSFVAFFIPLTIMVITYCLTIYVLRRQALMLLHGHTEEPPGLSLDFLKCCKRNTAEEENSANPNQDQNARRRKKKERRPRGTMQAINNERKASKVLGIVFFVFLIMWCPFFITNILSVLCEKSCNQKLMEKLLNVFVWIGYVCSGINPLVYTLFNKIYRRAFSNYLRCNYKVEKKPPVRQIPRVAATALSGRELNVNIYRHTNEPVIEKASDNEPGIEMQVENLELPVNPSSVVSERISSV
Briefly: Displacement of [3H]-Mesulergine from human 5-HT2C expressed in Flp-In-T-REx-293 cells assessed as inhibition constant incubated for 1 hr. Type of test: cell-based. To be noted: read-out: Ki. On the technique in general: Displacement assays read how much labelled ligand stays bound in the presence of the test substance.

The target of a further test is T2, Adenosine receptor A1 (Homo sapiens, UniProt P30542).
T2 sequence (P30542 whole entry): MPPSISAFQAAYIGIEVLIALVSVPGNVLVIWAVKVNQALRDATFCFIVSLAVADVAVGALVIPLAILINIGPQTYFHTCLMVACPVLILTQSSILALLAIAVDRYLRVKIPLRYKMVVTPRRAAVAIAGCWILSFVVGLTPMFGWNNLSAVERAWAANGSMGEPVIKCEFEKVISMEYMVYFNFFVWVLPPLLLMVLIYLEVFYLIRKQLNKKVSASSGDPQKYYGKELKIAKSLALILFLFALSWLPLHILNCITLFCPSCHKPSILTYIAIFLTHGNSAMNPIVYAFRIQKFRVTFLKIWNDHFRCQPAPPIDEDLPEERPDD
Briefly: Displacement of […] from human A1AR expressed in Flp-In-T-REx-293 cells assessed as inhibition constant. It counts as cell-based.

Test [2] has as its target T3, 5-hydroxytryptamine receptor 2A (Homo sapiens, UniProt P28223). The experiment in a line: Displacement of [3H]ketanserin from human 5-HT2A receptor expressed in HEK293 cells at 10 uM incubated for 1 hr relative to control. It counts as cell-based.
The target in a further test is Histamine H1 receptor (Homo sapiens, UniProt P35367). The experiment in a line: Binding affinity to histamine H1 receptor (unknown origin) assessed as inhibition constant.
Chain of Histamine H1 receptor (P35367 whole entry): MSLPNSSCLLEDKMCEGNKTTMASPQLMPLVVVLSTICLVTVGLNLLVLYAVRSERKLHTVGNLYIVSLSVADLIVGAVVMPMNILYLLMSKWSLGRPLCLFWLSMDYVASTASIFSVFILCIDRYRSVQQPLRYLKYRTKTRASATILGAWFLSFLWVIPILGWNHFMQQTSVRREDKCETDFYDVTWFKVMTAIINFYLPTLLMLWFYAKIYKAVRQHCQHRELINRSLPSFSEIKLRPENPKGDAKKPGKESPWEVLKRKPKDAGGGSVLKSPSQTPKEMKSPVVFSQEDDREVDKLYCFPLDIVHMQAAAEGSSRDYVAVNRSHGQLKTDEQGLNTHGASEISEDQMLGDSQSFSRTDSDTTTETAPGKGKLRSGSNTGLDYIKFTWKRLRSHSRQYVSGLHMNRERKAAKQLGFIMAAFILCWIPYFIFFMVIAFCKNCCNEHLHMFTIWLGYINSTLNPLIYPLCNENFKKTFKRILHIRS
In test [3] the target is T3, 5-hydroxytryptamine receptor 2A. To be noted: Flp-In-T-REx-293, time 1.0 hrs.
In test [4] the target is T4, Adenosine receptor A3 (Homo sapiens) (UniProt P0DMS8).
T4 sequence (whole entry): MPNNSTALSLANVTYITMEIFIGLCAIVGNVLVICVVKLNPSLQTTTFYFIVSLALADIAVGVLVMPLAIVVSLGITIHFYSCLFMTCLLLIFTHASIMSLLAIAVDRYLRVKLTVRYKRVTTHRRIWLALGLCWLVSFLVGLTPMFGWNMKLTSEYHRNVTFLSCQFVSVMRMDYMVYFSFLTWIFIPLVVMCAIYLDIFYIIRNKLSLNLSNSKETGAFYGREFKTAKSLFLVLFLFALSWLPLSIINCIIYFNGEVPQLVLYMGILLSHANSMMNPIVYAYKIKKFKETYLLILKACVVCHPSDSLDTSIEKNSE
Briefly: Displacement of […] from human A3AR expressed in HEK cells at 10 uM relative to control. It counts as cell-based. To be noted: filed as agonist.

Test [5] concerns the target T5, 5-hydroxytryptamine receptor 2C (Homo sapiens) (UniProt P28335).
T5 sequence (whole entry): T1 sequence (P28335 whole entry)
To be noted: Flp-In-T-REx-293, filed as antagonist, time 1.0 hrs.

For a further test, the target named is T6, Adenosine receptor A3 (Homo sapiens, UniProt P0DMS8).
T6 sequence (P0DMS8 whole entry): T4 sequence (whole entry)
The experiment in a line: Displacement of […] from human A3AR expressed in HEK cells assessed as inhibition constant. Type of test: cell-based.

In test [6] the target is Adenosine receptor A2a (Homo sapiens) (UniProt P29274). The experiment in a line: Displacement of […] from human A2AR expressed in HEK cells at 10 uM relative to control. It counts as cell-based.
Chain of Adenosine receptor A2a (Homo sapiens) (P29274 whole entry): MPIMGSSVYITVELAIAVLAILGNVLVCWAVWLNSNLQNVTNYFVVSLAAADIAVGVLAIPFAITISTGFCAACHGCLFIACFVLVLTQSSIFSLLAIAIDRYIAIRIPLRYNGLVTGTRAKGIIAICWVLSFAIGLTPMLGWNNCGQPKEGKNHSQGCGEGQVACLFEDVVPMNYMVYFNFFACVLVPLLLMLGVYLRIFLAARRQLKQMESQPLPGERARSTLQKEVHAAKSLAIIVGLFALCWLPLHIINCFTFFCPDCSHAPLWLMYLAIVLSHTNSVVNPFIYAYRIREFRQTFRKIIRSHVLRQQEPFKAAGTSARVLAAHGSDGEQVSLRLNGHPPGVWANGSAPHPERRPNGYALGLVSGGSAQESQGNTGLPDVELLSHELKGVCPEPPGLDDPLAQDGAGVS
The target in another test is T7, D(4) dopamine receptor (Homo sapiens, UniProt P21917).
T7 sequence (P21917 whole entry): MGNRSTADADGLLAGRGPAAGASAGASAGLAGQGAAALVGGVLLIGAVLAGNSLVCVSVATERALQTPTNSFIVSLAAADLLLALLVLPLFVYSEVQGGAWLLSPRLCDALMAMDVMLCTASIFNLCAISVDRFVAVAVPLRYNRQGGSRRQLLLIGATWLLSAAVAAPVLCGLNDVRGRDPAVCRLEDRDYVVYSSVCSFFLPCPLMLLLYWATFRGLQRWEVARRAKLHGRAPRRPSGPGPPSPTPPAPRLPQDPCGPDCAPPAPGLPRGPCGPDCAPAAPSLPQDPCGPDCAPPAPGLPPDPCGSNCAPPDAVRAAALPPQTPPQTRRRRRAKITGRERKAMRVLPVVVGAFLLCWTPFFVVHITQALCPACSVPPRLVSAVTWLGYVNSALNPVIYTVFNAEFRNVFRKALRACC
The experiment in a line: Binding affinity to dopamine D4 receptor (unknown origin) assessed as inhibition constant.

Test [7] addresses T8, Alpha-2C adrenergic receptor (Homo sapiens, UniProt P18825).
T8 sequence (P18825 whole entry): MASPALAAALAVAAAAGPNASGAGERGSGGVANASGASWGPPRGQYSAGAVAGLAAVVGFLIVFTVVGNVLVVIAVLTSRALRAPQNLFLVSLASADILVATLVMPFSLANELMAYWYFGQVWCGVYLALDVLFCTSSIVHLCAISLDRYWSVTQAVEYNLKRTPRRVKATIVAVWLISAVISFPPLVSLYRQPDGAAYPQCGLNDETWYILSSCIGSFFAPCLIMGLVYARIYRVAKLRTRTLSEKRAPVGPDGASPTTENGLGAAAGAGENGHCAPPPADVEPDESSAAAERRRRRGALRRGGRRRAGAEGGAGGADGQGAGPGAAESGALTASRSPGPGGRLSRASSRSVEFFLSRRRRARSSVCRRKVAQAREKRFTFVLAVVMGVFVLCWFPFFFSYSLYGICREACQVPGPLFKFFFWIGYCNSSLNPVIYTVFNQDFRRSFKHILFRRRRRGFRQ
Briefly: Binding affinity to alpha2C receptor (unknown origin) assessed as inhibition constant.

For test [8], the target named is Beta-3 adrenergic receptor (Homo sapiens, UniProt P13945). Briefly: Binding affinity to beta3 adrenergic receptor (unknown origin) assessed as inhibition constant.
Chain of Beta-3 adrenergic receptor (P13945 whole entry): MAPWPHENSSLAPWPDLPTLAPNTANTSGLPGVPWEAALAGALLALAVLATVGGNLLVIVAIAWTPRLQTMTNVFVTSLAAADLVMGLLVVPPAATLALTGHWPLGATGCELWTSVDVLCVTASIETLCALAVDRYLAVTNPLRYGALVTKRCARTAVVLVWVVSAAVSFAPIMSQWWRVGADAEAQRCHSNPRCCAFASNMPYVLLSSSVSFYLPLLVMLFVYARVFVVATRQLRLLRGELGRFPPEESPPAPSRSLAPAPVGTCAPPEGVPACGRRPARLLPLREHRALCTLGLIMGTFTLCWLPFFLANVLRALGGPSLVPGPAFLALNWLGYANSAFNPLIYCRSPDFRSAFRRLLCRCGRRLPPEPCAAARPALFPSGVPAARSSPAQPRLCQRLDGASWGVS
In test [9] the target is 5-hydroxytryptamine receptor 1D (Homo sapiens, UniProt P28221). The experiment in a line: Binding affinity to 5HT1D receptor (unknown origin) assessed as inhibition constant.
Chain of 5-hydroxytryptamine receptor 1D (P28221 whole entry): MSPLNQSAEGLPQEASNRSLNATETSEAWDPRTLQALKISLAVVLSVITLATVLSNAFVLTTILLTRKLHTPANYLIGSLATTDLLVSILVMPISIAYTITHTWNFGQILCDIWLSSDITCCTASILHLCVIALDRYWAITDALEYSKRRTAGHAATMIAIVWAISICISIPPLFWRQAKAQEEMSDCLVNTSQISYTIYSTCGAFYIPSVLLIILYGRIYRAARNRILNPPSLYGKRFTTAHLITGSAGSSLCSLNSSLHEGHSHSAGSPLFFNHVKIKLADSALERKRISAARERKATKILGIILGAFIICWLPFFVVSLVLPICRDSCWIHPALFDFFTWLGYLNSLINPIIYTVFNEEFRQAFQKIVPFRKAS
Test [10] addresses T5, 5-hydroxytryptamine receptor 2C (Homo sapiens). The experiment in a line: Displacement of [3H]-Mesulergine from human 5-HT2C expressed in Flp-In-T-REx-293 cells at 10 uM incubated for 1 hr relative to control. To be noted: filed as antagonist. It counts as cell-based.
In test [11] the target is T3, 5-hydroxytryptamine receptor 2A. The experiment in a line: Binding affinity to 5HT2A receptor (unknown origin) at 10 uM relative to control.
Another test addresses Translocator protein (Homo sapiens, UniProt P30536). The experiment in a line: Binding affinity to TSPO (unknown origin) assessed as inhibition constant.

T3 sequence (P28223 whole entry): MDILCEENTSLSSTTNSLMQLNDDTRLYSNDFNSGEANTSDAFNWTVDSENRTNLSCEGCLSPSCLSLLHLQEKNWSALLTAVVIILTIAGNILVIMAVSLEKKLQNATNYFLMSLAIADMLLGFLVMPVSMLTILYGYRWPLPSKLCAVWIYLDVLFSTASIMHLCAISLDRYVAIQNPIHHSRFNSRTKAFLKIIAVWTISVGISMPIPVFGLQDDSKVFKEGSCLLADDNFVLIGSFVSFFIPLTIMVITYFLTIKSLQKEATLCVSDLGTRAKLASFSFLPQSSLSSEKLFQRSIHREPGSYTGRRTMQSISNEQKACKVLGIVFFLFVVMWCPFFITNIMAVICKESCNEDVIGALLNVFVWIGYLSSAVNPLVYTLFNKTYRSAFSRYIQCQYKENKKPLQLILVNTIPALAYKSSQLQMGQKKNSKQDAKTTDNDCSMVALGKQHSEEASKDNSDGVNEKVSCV
Chain of Translocator protein (P30536 whole entry): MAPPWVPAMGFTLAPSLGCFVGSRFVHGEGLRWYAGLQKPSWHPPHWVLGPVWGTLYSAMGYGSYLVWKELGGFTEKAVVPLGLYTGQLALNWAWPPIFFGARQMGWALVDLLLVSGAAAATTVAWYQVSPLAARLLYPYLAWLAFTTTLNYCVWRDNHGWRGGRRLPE

Turning to `OC[C@@]12C[C@@H]1[C@@H](n1cnc3c(N[C@@H](C4CCC4)C4CC4)nc(I)nc31)[C@H](O)[C@@H]2O`, the inhibition constant (Ki) in [1] is 552 nM; on Adenosine receptor A1 it was 63.9 nM; on Histamine H1 receptor, 2100 nM. Also, the Activity came out at 26% in test [2] and 42% in test [4]. Also, the pKb in [3] is below 5; in test [5], 6.83.

For the compound `CCSC[C@@]12C[C@@H]1[C@@H](n1cnc3c(NC(C4CCCC4)C4CCCC4)nc(Cl)nc31)[C@H](O)[C@@H]2O`, the inhibition constant Ki at Adenosine receptor A3 was 6280 nM; on D(4) dopamine receptor, 3600 nM; in test [7], 2100 nM; in test [8] it was 1500 nM; in test [9] it was 5200 nM. Further, the Activity was 38% in test [2], -48% in test [6] and 47% in [10].

As for `OC[C@@]12C[C@@H]1[C@@H](n1cnc3c(NC(C4CCC4)C4CCC4)nc(I)nc31)[C@H](O)[C@@H]2O`, the figures for the Activity in [11] and in [6] were 16% and 37%, respectively. For the same compound, the figures for the inhibition constant (Ki) on Adenosine receptor A1, at Adenosine receptor A3 and on Translocator protein were 204 nM, 34300 nM and 2100 nM, respectively.

In general, Ki refers to the equilibrium dissociation constant of an inhibitor or competing ligand from its target. What is called pKb is −log10 of the Kb, conventionally taken in molar units. A high value points to a small Kb.
